Active and inactive are the calls of the source.
How the values were obtained:
Format in all cases: functional, organism-based
Escherichia coli = experiment: Antibacterial activity against Escherichia coli up to 100 ug/mL by agar diffusion test
Staphylococcus aureus = experiment: Antibacterial activity against Staphylococcus aureus by agar diffusion test
Bacillus subtilis = experiment: Antibacterial activity against Bacillus subtilis up to 100 ug/mL by agar diffusion test
Rhizomucor miehei = experiment: Antifungal activity against Mucor miehei by agar diffusion test
Chlorella vulgaris = experiment: Antialgal activity against Chlorella vulgaris up to 100 ug/mL by agar diffusion test
Chlorella salina = experiment: Antialgal activity against Chlorella salina by agar diffusion test
Chlorella sorokiniana = experiment: Antialgal activity against Chlorella sorokiniana by agar diffusion test

Measured: Activity

Cc1ccc2c(c1)/C(=N\N=C1/CC(C)(C)Oc3ccc(C)cc31)CC(C)(C)O2
inactive: all assays above
